Measurements as given in paper PMC7305236, “The atypical chemokine receptor ACKR3/CXCR7 is a broad-spectrum scavenger for opioid peptides” (Nature Communications, 2020).
Read-outs that look alike come from different tables or passages of the source.

What was measured:
[1] = target: T1, CXCR4 (Homo sapiens, UniProt P61073); assay type: cell-based
T1 construct: expressed in transfected cells; host or cells: U87, transient cotransfection of pNBe vectors

[2] = target: T2, ACKR3 (Homo sapiens, UniProt P25106); assay type: cell-based; set-up: expressed in transfected cells; conditions: 100 nM
[3] = target: T3, CCR1 (Homo sapiens, UniProt P32246); experiment: Figure S2a opioid peptide screen on chemokine receptors; assay type: cell-based; set-up: dose or concentration left out as unconfirmed; conditions: replicate 1, read-out: CCR1 activity, ctrl+ = 100
T3 construct: expressed in transfected cells
T3 sequence (P32246 1-355): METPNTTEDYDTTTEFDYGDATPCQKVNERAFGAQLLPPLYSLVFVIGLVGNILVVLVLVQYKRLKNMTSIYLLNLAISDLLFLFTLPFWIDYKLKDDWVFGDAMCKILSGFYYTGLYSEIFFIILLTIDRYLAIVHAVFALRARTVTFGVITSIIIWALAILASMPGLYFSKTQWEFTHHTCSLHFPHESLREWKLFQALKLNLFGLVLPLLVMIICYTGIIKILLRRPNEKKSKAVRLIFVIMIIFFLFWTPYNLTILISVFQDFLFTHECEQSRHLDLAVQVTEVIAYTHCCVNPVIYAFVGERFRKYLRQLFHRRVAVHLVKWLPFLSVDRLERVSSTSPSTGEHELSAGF

[4] = target: T4, CCR6 (Homo sapiens, UniProt P51684); experiment: as above; assay type: cell-based; set-up: dose or concentration left out as unconfirmed; conditions: replicate 1, read-out: CCR6 activity, ctrl+ = 100
T4 construct: expressed in transfected cells
T4 sequence (P51684 1-374): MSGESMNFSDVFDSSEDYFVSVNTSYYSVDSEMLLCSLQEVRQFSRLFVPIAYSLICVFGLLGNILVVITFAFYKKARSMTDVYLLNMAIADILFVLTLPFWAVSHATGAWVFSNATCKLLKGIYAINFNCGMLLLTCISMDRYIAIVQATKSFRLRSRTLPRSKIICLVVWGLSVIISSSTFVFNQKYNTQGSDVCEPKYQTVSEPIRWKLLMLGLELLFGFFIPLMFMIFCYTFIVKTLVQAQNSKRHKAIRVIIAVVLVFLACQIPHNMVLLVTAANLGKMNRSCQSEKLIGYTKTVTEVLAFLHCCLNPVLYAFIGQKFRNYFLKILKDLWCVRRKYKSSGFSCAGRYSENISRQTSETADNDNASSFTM

[5] = target: T5, CXCR3A (Homo sapiens, UniProt P49682); experiment: as above; assay type: cell-based; set-up: dose or concentration left out as unconfirmed; conditions: replicate 1, read-out: CXCR3A activity, ctrl+ = 100
T5 construct: expressed in transfected cells; host or cells: U87 cells
T5 sequence (P49682 1-368): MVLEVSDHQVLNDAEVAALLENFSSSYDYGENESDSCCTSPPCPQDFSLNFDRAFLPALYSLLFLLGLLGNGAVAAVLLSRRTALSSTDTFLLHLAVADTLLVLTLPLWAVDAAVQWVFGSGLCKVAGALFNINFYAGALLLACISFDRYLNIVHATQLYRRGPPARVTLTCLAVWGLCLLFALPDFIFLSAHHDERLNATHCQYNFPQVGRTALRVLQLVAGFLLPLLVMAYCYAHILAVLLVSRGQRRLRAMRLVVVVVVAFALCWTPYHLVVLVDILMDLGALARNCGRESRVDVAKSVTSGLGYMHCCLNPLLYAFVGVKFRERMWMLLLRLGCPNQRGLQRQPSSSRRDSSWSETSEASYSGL

[6] = target: T6, ACKR2 (Homo sapiens, UniProt O00590); experiment: as above; assay type: cell-based; set-up: dose or concentration left out as unconfirmed; conditions: replicate 2, read-out: ACKR2 activity, ctrl+ = 100
T6 construct: expressed in transfected cells; host or cells: U87 cells (human glioblastoma)
T6 sequence (O00590 1-384): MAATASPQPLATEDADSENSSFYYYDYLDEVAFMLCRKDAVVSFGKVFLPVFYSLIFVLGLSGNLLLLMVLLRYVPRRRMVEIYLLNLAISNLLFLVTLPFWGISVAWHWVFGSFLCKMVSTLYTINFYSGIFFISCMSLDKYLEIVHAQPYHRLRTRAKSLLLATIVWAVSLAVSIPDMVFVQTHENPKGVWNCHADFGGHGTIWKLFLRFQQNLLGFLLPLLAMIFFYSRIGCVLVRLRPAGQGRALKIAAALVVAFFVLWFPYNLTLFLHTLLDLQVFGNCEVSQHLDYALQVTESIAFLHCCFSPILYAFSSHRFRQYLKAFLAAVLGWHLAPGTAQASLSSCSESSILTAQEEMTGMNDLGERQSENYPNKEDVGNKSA

[7] = target: T2, ACKR3; experiment: cell-based; set-up: dose or concentration left out as unconfirmed; conditions: read-out: ACKR3 activity, ctrl+ = 100, Figure S2a; replicate 2
[8] = target: T7, CCR3 (Homo sapiens, UniProt P51677); experiment: Figure S2a opioid peptide screen on chemokine receptors; set-up: dose or concentration left out as unconfirmed; conditions: read-out: CCR3 activity, ctrl+ = 100, Figure S2a
T7 sequence (P51677 1-355): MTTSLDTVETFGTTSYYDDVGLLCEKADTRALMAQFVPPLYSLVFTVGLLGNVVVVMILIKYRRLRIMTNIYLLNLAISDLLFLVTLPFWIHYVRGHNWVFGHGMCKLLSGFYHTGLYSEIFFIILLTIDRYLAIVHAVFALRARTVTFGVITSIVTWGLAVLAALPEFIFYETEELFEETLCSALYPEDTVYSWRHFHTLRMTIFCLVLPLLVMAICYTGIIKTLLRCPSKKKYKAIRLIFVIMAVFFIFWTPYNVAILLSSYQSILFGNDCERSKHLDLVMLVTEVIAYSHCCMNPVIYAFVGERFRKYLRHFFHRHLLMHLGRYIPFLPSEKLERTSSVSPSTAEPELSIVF

[9] = target: T8, CXCR7 (Homo sapiens, UniProt P25106); experiment: Figure S1a: screen of opioid peptides on CXCR7; assay type: cell-based
T8 construct: expressed in transfected cells; host or cells: U87 cells

[10] = target: NOP (Homo sapiens, UniProt P41146); experiment: Activity of ligands towards NOP (source data Fig 4a, 4c); assay type: cell-based; conditions: 100 nM
[11] = target: T9, ACKR (Homo sapiens, UniProt P25106); experiment: Figure 6h, ACKR, DMSO vs Bafilomycin treatment; assay type: cell-based; conditions: n = 3 or 4 as in cell
T9 construct: expressed in transfected cells; host or cells: U87 cells (human glioblastoma)

[12] = target: KOR (Homo sapiens, UniProt P41145); experiment: Figure 6h, KOR, DMSO vs Bafilomycin treatment; assay type: cell-based; set-up: expressed in transfected cells; host or cells: U87 (human glioblastoma); conditions: n = 3 or 4 as in cell
[13] = target: T10, U87 ACKR3 (Homo sapiens, UniProt P25106); experiment: Figure 6c source data, U87 ACKR3; assay type: cell-based; conditions: Figure 6c inset, U87 ACKR3 + labelled peptide, titrated agonist not given
T10 construct: expressed in transfected cells

[14] = 'DMSO vs Bafilomycin treatment'
[15] = first of two columns under 'DMSO vs Bafilomycin treatment' (presumably DMSO)

T10 sequence (P25106 whole entry): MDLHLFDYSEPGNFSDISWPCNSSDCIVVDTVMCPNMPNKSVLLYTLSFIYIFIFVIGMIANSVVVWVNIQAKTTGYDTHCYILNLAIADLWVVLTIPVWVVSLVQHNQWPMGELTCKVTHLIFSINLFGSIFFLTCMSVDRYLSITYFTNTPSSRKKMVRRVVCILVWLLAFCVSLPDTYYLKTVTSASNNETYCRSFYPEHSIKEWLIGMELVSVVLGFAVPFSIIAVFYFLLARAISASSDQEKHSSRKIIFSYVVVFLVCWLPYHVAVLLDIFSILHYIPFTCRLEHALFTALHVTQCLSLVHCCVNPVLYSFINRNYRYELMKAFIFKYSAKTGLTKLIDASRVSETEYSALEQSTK
T2 sequence (P25106 whole entry): as above
Sequence of NOP (P41146 whole entry): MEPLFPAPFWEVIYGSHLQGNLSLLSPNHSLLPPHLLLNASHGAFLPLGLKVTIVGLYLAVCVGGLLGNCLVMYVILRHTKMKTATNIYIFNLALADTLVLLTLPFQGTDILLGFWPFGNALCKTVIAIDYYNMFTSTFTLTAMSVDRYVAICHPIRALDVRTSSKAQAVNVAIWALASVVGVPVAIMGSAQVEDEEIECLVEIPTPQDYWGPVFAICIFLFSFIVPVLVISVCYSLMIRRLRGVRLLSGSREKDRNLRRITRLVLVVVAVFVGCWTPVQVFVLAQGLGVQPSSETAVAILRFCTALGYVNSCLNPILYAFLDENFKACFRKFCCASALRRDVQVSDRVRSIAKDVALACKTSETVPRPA
T1 sequence (P61073 whole entry): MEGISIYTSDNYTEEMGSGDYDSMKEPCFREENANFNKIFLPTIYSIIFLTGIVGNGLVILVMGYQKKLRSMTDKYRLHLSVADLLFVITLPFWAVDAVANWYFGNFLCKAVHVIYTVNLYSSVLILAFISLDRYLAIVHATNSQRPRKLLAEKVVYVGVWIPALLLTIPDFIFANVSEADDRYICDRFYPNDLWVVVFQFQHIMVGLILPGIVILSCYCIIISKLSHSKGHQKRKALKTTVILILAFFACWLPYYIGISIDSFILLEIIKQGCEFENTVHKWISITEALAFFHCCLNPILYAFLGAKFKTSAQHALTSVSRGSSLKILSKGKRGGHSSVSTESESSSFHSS
T8 sequence (P25106 whole entry): as the sequence (P25106 whole entry) above
T9 sequence (P25106 whole entry): as above
Sequence of KOR (P41145 whole entry): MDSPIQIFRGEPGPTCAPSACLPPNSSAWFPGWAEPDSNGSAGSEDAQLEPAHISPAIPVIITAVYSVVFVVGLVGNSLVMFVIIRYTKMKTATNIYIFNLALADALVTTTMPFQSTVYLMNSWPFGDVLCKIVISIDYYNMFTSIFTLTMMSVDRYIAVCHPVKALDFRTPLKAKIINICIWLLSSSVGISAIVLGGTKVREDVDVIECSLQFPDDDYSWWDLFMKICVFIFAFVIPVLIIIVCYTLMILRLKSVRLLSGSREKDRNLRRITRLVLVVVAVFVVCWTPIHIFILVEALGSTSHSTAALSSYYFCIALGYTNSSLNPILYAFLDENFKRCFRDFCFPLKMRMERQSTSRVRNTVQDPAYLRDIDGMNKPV

c1cc(CN2CCCNCCNCCCNCC2)ccc1CN1CCCNCCNCCCNCC1 [AMD3100]
Figure S1a value, CXCR4 ([1]; replicate 1): -2.401 | Figure S1a value, CXCR4 ([1]; replicate 2): 38.4908

Oc1ccc2c3c1O[C@H]1c4[nH]c5ccccc5c4C[C@@]4(O)[C@@H](C2)N(CC2CC2)CC[C@]314 [Naltrindole]
ACKR3 activity, Fig 4a ([2]; replicate 1): 7.799 | ACKR3 activity, Fig 4a ([2]; replicate 2): 7.647 | ACKR3 activity, Fig 4a ([2]; replicate 3): 1.281

CC[C@H](C)[C@H](NC(=O)[C@H](C)NC(=O)[C@H](CC(N)=O)NC(=O)[C@H](CCCCN)NC(=O)[C@H](Cc1ccccc1)NC(=O)[C@H](CC(C)C)NC(=O)[C@@H](NC(=O)[C@@H](NC(=O)[C@H](CC(C)C)NC(=O)[C@@H]1CCCN1C(=O)[C@@H](NC(=O)[C@H](CCC(N)=O)NC(=O)[C@H](CO)NC(=O)[C@H](CCCCN)NC(=O)[C@H](CCC(=O)O)NC(=O)[C@H](CO)NC(=O)[C@@H](NC(=O)[C@H](CCSC)NC(=O)[C@H](Cc1ccccc1)NC(=O)CNC(=O)CNC(=O)[C@@H](N)Cc1ccc(O)cc1)[C@@H](C)O)[C@@H](C)O)C(C)C)[C@@H](C)O)C(=O)N[C@H](C(=O)N[C@@H](CCCCN)C(=O)N[C@@H](CC(N)=O)C(=O)N[C@@H](C)C(=O)N[C@@H](Cc1ccc(O)cc1)C(=O)N[C@@H](CCCCN)C(=O)N[C@@H](CCCCN)C(=O)NCC(=O)N[C@@H](CCC(=O)O)C(=O)O)[C@@H](C)CC [-endorphin]
activation [3]: 6.2% | activation [4]: 1.21% | activation [5]: 2.35% | activation [6]: 16.8% | activation [7]: 3.39% | activation ([8]; replicate 1): 5.63% | activation ([8]; replicate 2): 8.01%

CXCL11
Figure S1a value, CXCR7 ([9]; replicate 1): 84.3234 | Figure S1a value, CXCR7 ([9]; replicate 2): 115.296 | Figure S1a value, CXCR4 ([1]; replicate 1): 49.1082 | Figure S1a value, CXCR4 ([1]; replicate 2): 78.3882

Oc1ccc2c3c1O[C@H]1c4[nH]c5c(c4C[C@@]4(O)[C@@H](C2)N(CC2CC2)CC[C@]314)C[C@@]1(O)[C@H]2Cc3ccc(O)c4c3[C@@]1(CCN2CC1CC1)[C@H]5O4 [nor-Binaltrophimine]
NOP activity, Fig 4a ([10]; replicate 1): 13.2975 | NOP activity, Fig 4a ([10]; replicate 2): 23.1448 | NOP activity, Fig 4a ([10]; replicate 3): -11.7109 | ACKR3 activity, Fig 4a ([2]; replicate 1): 6.23 | ACKR3 activity, Fig 4a ([2]; replicate 2): 7.454 | ACKR3 activity, Fig 4a ([2]; replicate 3): 1.2819

C=CCN1CC[C@]23c4c5ccc(O)c4O[C@H]2C(=O)CC[C@@]3(O)[C@H]1C5 [Naloxone]
ACKR3 activity, Fig 4a ([2]; replicate 1): -16.5596 | ACKR3 activity, Fig 4a ([2]; replicate 2): -16.7812 | ACKR3 activity, Fig 4a ([2]; replicate 3): -9.5257

Buprenorphine
ACKR3 activity, Fig 4a ([2]; replicate 1): -5.792 | ACKR3 activity, Fig 4a ([2]; replicate 2): 26.4917 | ACKR3 activity, Fig 4a ([2]; replicate 3): -14.8896

CSCC[C@H](NC(=O)[C@H](Cc1ccccc1)NC(=O)CNC(=O)CNC(=O)[C@@H](N)Cc1ccccc1)C(=O)N[C@@H](CCCNC(=N)N)C(=O)N[C@@H](CCCNC(=N)N)C(=O)N[C@@H](CCCCN)C(N)=O [LIH383]
Mean ± SEM (Figure 6h, ACKR) [11, 14]: 25,99 ± 1,65, n=3 | Mean ± SEM (Figure 6h, ACKR) [11, 15]: 41,87 ± 2,846, n=3 | Mean ± SEM (Figure 6h, KOR) [12, 14]: 102,6 ± 3,011, n=3 | Mean ± SEM (Figure 6h, KOR) [12, 15]: 99,75 ± 4,761, n=3

H-MRRKFGGF-NH2 [LIH inverse]
EC50 ([13]; replicate 1): 64.8 nM | EC50 ([13]; replicate 2): 119 nM | EC50 ([13]; replicate 3): 112 nM | EC50 ([13]; replicate 4): 71.7 nM
